Legend:
[1] = test system: APP(s) secretion from primary human astrocytes; assay: Secretion of APP(s) (protease-nexin II) into medium from primary astrocytes; type: cell-based; details: 2 hour pulse labeling
Description: (§1) Secretion and labeling of APP(s) (protease-nexin-2) from primary astrocytes by IL-1 was measured in a separate set of experiments. Medium from 100 mm dishes (10 ml) of astrocyte cultures was collected after a 2-hour pulse labeling with 200 μCi/ml [^35S]-methionine. APP in 5 ml of precleared medium was immunoprecipitated using a 1:1500 dilution of rabbit polyclonal serum specific for amino acids 595-611 of APP (R1736, D. Selko). Apolipoprotein E was immunoprecipitated from 5 ml of culture supernatant using a 1:200 dilution of a polyclonal antiserum (Chemicon).
(§2) In all labeling experiments, immunoprecipitated protein was collected by the binding of antibody-labeled antigen complexes to Protein A Sepharose™ beads. Immunoprecipitated samples were applied to 10-20% tris-tricine gels (Novex) and the samples were electrophoresed in tris-tricine buffer according to the manufacturer's instructions. The gels were fixed with 25% methanol, […] for 1 hour, treated with fluorographic reagent (Amplify, Amersham) for 30 minutes, dried, and exposed to X-omat Kodak film overnight at −80° C.

Apo-E protein synthesis = Apo-E protein synthesis (internal standard), primary astrocytes; type: cell-based; details: primary human astrocytes
Description: as §1, §2

[2] = test system: ferritin-H subunit synthesis in astrocytoma (U373MG) cells; assay: Ferritin-H subunit synthesis, astrocytoma cells; type: cell-based, human; details: 0.5 ng/ml, 16 hrs
Description: (§3) Primary human astrocytes were prepared by trypsinization of human fetal brain tissue by a previously described method (Das, et al., Neuron 14; 447 (1995)). Cells were seeded onto poly-L-lysine (10 μg/ml) coated plates and were grown to 70% confluence in DMEM medium, (low glucose) supplemented with 10% fetal bovine serum. In order to eliminate microglia, the cultures were treated with 5 mM H-Leu-O-methylester (Guilian, J. Neurosci. Res. 18:155 (1987)). For immunofluorescence, cells were replated at a density of 100,000 cells per 60-mm petri dish on poly-L-lysine coated glass coverslips and grown for 24 hours in 0.5 ml of medium to allow the cells to attach. The presence of glial fibrillary acidic protein (GFAP) was detected by immunofluorescent staining of formaldehyde fixed cells using a 1:10 dilution of rabbit IgG1 antibody specific for human GFAP. Primary GFAP-specific antibody was added to the coverslips for 30 minutes at room temperature in phosphate buffered saline and 10% goat serum. The secondary antibodies used were goat anti-rabbit IgG conjugated to fluorescein isothiocyanate at a dilution of 1:100 (Boehringer). Fluorescence microscopy scored the cells used in the metabolic experiments as 95% pure astrocytes. […] The U373MG astrocytoma cell line was cultured on 100 mm uncoated dishes to 60-80% confluence in DMEM medium supplemented with 10% fetal bovine serum. […]

[3] = test system: L-ferritin synthesis in astrocytoma (U373MG) cells; assay: L-ferritin synthesis, astrocytoma cells; type: cell-based, human; details: 0.5 ng/ml, 16 hrs
Description: as §3

pSV2CAT parental vector = assay: CAT reporter activity in astrocytoma cells transfected with parental vector pSV2CAT; type: cell-based, human
Description: Astrocytoma and neuroblastoma cells were transfected with pSV2CAT or pSV2(APP)CAT by lipofection. Briefly, lipofectamine reagent (Boehringer) was added to DMEM (without serum) and allowed to sit 30 minutes at room temperature. Plasmids (10 μg) in an equal volume of DMEM were then added, and, after sitting for 45 minutes at room temperature, the lipid/DNA solution was added to 60% confluent cells on 100×20 mm cell culture plates. After 4 hours, this solution was removed, and the cells were washed twice in DMEM (without serum). Fresh DMEM medium (containing 10% fetal calf serum) was added. At this time, treatments were administered which included: (1) 0.5 ng/ml IL-1α; (2) 0.5 ng/ml IL-1β; (3) 5 μM Fe2TF (holo-transferrin); and (4) unstimulated controls. […]
After harvesting, cells were resuspended in 100 μl 0.25 M Tris, pH 7.8, and subjected to three cycles of freezing (liquid nitrogen) and […] (37° C.) to lyse cells. […] Protein concentration was determined by a Biorad assay, and exactly 20 μg of lysate was added to a CAT reaction mix containing 50 μl 1M Tris, pH 7.8, 20 μl acetylcoenzyme-A (3.5 mg/ml) and […] ^14C-labeled chloramphenicol (25 mCi/ml). […] For quantitative analysis, the areas on the TLC plates which aligned with dots on the film were excised and the radioactivity was counted in 5 ml of scintillation cocktail (Econofluor) using a scintillation counter (Hewlett Packard). […]

Substance	increased accumulation of APP(s) ([1]; medium) [%]	ApoE protein synthesis (Apo-E protein synthesis)	enhanced rate of ferritin-H subunit synthesis [2] [fold]	enhanced rate of L-ferritin synthesis [3] [fold]	enhanced secretion of APP(s) into the medium [1] [fold]	effect on CAT activity, parental vector (pSV2CAT parental vector)
interleukin-1α [IL-1α]	50	no increase	5	2		
interleukin-1β [IL-1β]		no increase	5	2	1.8	no effect

Reference: patent publication US6849405B2, “Translation enhancer element of the human amyloid precursor protein gene” (The Brigham and Women's Hospital, Inc., priority 1997, dated 2005)
